# Results as given in the supplement of paper PMC10949913.
# Where a name gives a salt, the structure may show the parent alone.
# What was measured:
# CU-ACC1 = assay: ExcessHSA synergy score with TAK-243; higher = less synergy (negative = synergistic); settings: combined with: TAK-243 (MLN-7243) matrix, 9-point 1:2 dilution
# Method: (§1)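 Each drug was tested at 9 points with 1:2 dilution; viability was read by CellTiter-Glo as in the single-agent screen. Synergy is scored as ExcessHSA (sum of excess over highest single agent; negative = synergy) and the Beta interaction parameter (<1 synergy).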
# NCI-H295R = assay: as above; settings: combined with: TAK-243 (MLN-7243) matrix, 9-point 1:2 dilution
# Method: as §1
compound,measurement,setting,value
CCc1cnn2c(NCc3ccc[n+]([O-])c3)cc(N3CCCC[C@H]3CCO)nc12 [Dinaciclib],ExcessHSA synergy score with TAK-243,CU-ACC1,86.7
same,ExcessHSA synergy score with TAK-243,NCI-H295R,170
CC(C)C[C@H](NC(=O)[C@H](CCc1ccccc1)NC(=O)CN1CCOCC1)C(=O)N[C@@H](Cc1ccccc1)C(=O)N[C@@H](CC(C)C)C(=O)[C@@]1(C)CO1 [Carfilzomib],ExcessHSA synergy score with TAK-243,CU-ACC1,-949
same,ExcessHSA synergy score with TAK-243,NCI-H295R,-675
Nc1ccn([C@@H]2O[C@H](CO)[C@@H](O)C2(F)F)c(=O)n1 [Gemcitabine],ExcessHSA synergy score with TAK-243,CU-ACC1,-457
same,ExcessHSA synergy score with TAK-243,NCI-H295R,236
C[C@@H]1OCC2(CCN(c3cnc(Sc4ccnc(N)c4Cl)c(N)n3)CC2)[C@@H]1N [TNO-155],ExcessHSA synergy score with TAK-243,CU-ACC1,176
same,ExcessHSA synergy score with TAK-243,NCI-H295R,322
COc1cc([C@@H](CC(=O)O)c2ccc(C)c(CN3C[C@@H](C)Oc4ccccc4S3(=O)=O)c2)cc2nnn(C)c12 [KI-696],ExcessHSA synergy score with TAK-243,CU-ACC1,533
same,ExcessHSA synergy score with TAK-243,NCI-H295R,351
O=C(c1ccc(F)c(F)c1Nc1ccc(I)cc1F)N1CC(O)([C@@H]2CCCCN2)C1 [Cobimetinib],ExcessHSA synergy score with TAK-243,CU-ACC1,450
same,ExcessHSA synergy score with TAK-243,NCI-H295R,819
O=C(O)C1(C(=O)O)CCC1.[NH2-].[NH2-].[Pt+2] [Carboplatin],ExcessHSA synergy score with TAK-243,CU-ACC1,-188
same,ExcessHSA synergy score with TAK-243,NCI-H295R,-21.5
CC1(C)CCC2(CC1)N[C@@H](C(=O)N[C@@H]1CC[C@@H](C(N)=O)OC1)[C@H](c1ccnc(Cl)c1F)[C@]21C(=O)Nc2cc(Cl)ccc21 [Milademetan],ExcessHSA synergy score with TAK-243,CU-ACC1,-380
same,ExcessHSA synergy score with TAK-243,NCI-H295R,-111
Cc1cnc(CNC(=O)c2c(=O)c3ccc(N4CCCN(C)CC4)nc3n3c2sc2ccccc23)cn1 [CX-5461],ExcessHSA synergy score with TAK-243,CU-ACC1,210
same,ExcessHSA synergy score with TAK-243,NCI-H295R,895
O=C(NCc1cc(F)cc(F)c1)[C@@]1(O)CCN(c2ccc3[nH]ccc3c2)C1=O [M8891],ExcessHSA synergy score with TAK-243,CU-ACC1,34
same,ExcessHSA synergy score with TAK-243,NCI-H295R,171
C/C=C(/C)C(=O)O[C@H]1C(C)=C2[C@H]([C@@H]1OC(=O)CCCCCCC)[C@@](C)(OC(C)=O)C[C@H](OC(=O)CCC)[C@@]1(O)[C@H]2OC(=O)[C@@]1(C)O [Thapsigargin],ExcessHSA synergy score with TAK-243,CU-ACC1,-443
same,ExcessHSA synergy score with TAK-243,NCI-H295R,-409
CCS(=O)(=O)c1cc2cc(C[C@](O)(CC(C)(C)c3ccc(F)cc3C(N)=O)C(F)(F)F)[nH]c2cn1,ExcessHSA synergy score with TAK-243,CU-ACC1,653
same,ExcessHSA synergy score with TAK-243,NCI-H295R,885
COc1cc2c(cc1-c1c(C)noc1C)cc(C)c(=O)n2Cc1ccccn1 [ODM-207],ExcessHSA synergy score with TAK-243,CU-ACC1,182
same,ExcessHSA synergy score with TAK-243,NCI-H295R,-3.62
Cc1cccc(CC(=O)N2CCc3c2ccc(-c2cn(C)c4ncnc(N)c24)c3F)n1,ExcessHSA synergy score with TAK-243,CU-ACC1,-151
same,ExcessHSA synergy score with TAK-243,NCI-H295R,173
O=C(NCc1ccc(S(=O)(=O)c2cccc(C(F)(F)F)c2)cc1)c1cnc2[nH]ncc2c1 [GNE-618],ExcessHSA synergy score with TAK-243,CU-ACC1,-406
same,ExcessHSA synergy score with TAK-243,NCI-H295R,-555
C=CCn1c(=O)c2cnc(Nc3ccc(N4CCN(C)CC4)cc3)nc2n1-c1cccc(C(C)(C)O)n1 [MK-1775],ExcessHSA synergy score with TAK-243,CU-ACC1,295
same,ExcessHSA synergy score with TAK-243,NCI-H295R,169
O=c1sn(-c2cccc3ccccc23)c(=O)n1Cc1ccccc1 [Tideglusib],ExcessHSA synergy score with TAK-243,CU-ACC1,-108
same,ExcessHSA synergy score with TAK-243,NCI-H295R,-74.2
CNC(=O)Nc1ccc2c(c1)CC[C@@]21OC(=O)N(CC(=O)N(Cc2ccc(F)cc2)[C@@H](C)C(F)(F)F)C1=O [A-485],ExcessHSA synergy score with TAK-243,CU-ACC1,305
same,ExcessHSA synergy score with TAK-243,NCI-H295R,334
O=C(c1cc(-c2cc3c(cc2C(=O)N2Cc4ccccc4CC2CN2CCOCC2)OCO3)n2c1CCCC2)N(c1ccccc1)c1ccc(O)cc1 (stereo not given),ExcessHSA synergy score with TAK-243,CU-ACC1,-937
same,ExcessHSA synergy score with TAK-243,NCI-H295R,-903
COc1ncnc(C2CC2)c1-c1ncc2cnn(Cc3ccc(-c4nc(C(F)(F)F)cn4C(C)C)cc3)c2n1 [KSQ-4279],ExcessHSA synergy score with TAK-243,CU-ACC1,-545
same,ExcessHSA synergy score with TAK-243,NCI-H295R,-796
CN1CCN(c2ccc(Nc3ncc4cc5n(c4n3)C3(CCCCC3)CNC5=O)nc2)CC1 [Trilaciclib (hydrochloride)],ExcessHSA synergy score with TAK-243,CU-ACC1,-171
same,ExcessHSA synergy score with TAK-243,NCI-H295R,125
Cc1nc(=O)c2cc(CN(C)c3ccc(C(=O)N[C@@H](CCC(=O)O)C(=O)O)s3)ccc2[nH]1 [Raltitrexed],ExcessHSA synergy score with TAK-243,CU-ACC1,-398
same,ExcessHSA synergy score with TAK-243,NCI-H295R,-54.1
N[C@H]1CC[C@H](N[C@@H]2C[C@H]2c2ccccc2)CC1 [ORY-1001],ExcessHSA synergy score with TAK-243,CU-ACC1,-384
same,ExcessHSA synergy score with TAK-243,NCI-H295R,-493
CC1(C)CCC(CN2CCN(c3ccc(C(=O)NS(=O)(=O)c4ccc(NCC5CCOCC5)c([N+](=O)[O-])c4)c(Oc4cnc5[nH]ccc5c4)c3)CC2)=C(c2ccc(Cl)cc2)C1 [Venetoclax (ABT-199)],ExcessHSA synergy score with TAK-243,CU-ACC1,-249
same,ExcessHSA synergy score with TAK-243,NCI-H295R,-424
Nc1c(C(=O)c2ccccc2)sc2[nH]c(=O)c(C(=O)O)cc12,ExcessHSA synergy score with TAK-243,CU-ACC1,-23.4
same,ExcessHSA synergy score with TAK-243,NCI-H295R,-51.1
